Our source for the Ki values is patent US8962656B2, “CCR2 antagonists” (Boehringer Ingelheim International GmbH, priority 2010, dated 2015).

The target in this assay is T1, CCR2 (Homo sapiens, UniProt P41597).
T1 construct: Membranes were prepared from THP-1 cells; endogenous in cells; host or cells: THP-1 (human acute monocytic leukaemia cells), membrane preparation
T1 sequence (P41597 whole entry): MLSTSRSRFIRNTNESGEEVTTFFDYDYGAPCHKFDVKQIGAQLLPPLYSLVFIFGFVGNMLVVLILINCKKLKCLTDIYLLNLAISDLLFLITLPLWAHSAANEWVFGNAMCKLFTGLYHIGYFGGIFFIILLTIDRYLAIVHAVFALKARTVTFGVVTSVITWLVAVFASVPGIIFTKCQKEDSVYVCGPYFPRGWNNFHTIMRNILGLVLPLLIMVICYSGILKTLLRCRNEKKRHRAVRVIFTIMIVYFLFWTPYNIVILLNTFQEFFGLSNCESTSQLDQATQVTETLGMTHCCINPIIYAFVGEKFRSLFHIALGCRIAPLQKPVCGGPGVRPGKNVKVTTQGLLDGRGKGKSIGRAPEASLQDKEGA
As to the kind of experiment: CCR2 receptor membrane binding assay ([125I]MCP-1, THP-1 membranes, SPA beads). Conditions: THP-1 cell membranes, [125I]MCP-1 displacement, bound radioactivity after 8 h; read-out: hKi. Here is the method: The above exemplary substances have been tested for binding to CCR2 using a binding assay as outlined herein below:
THP-1 cells (human acute monocytic leukaemia cells) were cultured under standardized conditions at 37° C. and 5% CO2 in a humidified incubator. THP-1 cells were cultivated in RPMI 1640 medium (Gibco 21875) containing 1% MEM-NEAA (Gibco 11140) 2 mM L-glutamine, 1.5 g/L sodium bicarbonate, 4.5 g/L glucose, 10 mM HEPES and 1.0 mM sodium pyruvate, 90%; 10% fetal calf serum (FCS Gibco 10500-064). Membranes were prepared from THP-1 cells. THP-1 cells were centrifuged at 300×g at 4° C. for 10 min. The cell pellet was resuspendet in Phosphate Buffer Saline (PBS, including 10 μM Pefabloc and a protease inhibitor mix ‘complete’, Boehringer Mannheim (1 tablet/50 ml)), to a concentration of […]. The membrane preparation was performed by disrupting the cells by nitrogen […] (at 50 bar, for 1 h) in a “Nitrogen Bombe” (Parr Instrument). Cell debris was removed by centrifugation (800×g at 4° C., 1 min). The supernatant was centrifuged at 80000×g, 4° C. for 30 min to sediment the cell membranes. Usually 50 mg of protein (Bradford assay) were yielded from 1×10E9 cells. The membranes were resuspendet in 25 mM HEPES, 25 mM MgCl2, 1 mM CaCl2, 10% Glycerine for storage in aliquots at −80° C. in 25 mM HEPES, 25 mM MgCl2, 1 mM CaCl2, 10% Glycerine and stored at −80° C.
Perkin Elmer NEX 332 Jod 125 MCP-1, Stock: 2200 Ci/mmol solved in 2000 μl assay buffer, stored at −20° C. THP-1 membrane were adjusted with 25 mM HEPES, pH 7.2; 5 mM MgCl2; 0.5 mM CaCl2; 0.2% BSA assay buffer to a concentration of 2.5 μg/15 Amersham Biosciences PVT-WGA Beads (RPNQ0001) were adjusted with assay buffer to a concentration of 0.24 mg/30 μl. For preparation of the membrane-bead-suspension membranes and beads were incubated for 30 min at RT under rotation (60 rpm) with a ratio of 1:2. Test compounds dissolved in 100% DMSO to a concentration of 10 mM and are further diluted with 100% DMSO to 1 mM. All additional compound dilutions were obtained with assay buffer, final 1% DMSO. Compounds, membrane-bead-suspension and [125I]MCP-1 (ca. 25000 cpm/10 μl) were incubated. Bound radioactivity was determined by scintillation counter after 8 h. Determination of affinity of test compounds (dissociation constant hKi) is calculated by iterative fitting of experimental data using the “easy sys” program, which is based on law of mass action (Schittkowski K. (1994), Numerische Mathematik, Vol. 68, 129-142).
Turning to `CO[C@H]1COCC[C@H]1NC1CCN(C(=O)c2cncc(NC[C@H]3CCC[C@@H](c4ccc(C)cc4)O3)c2C)CC1` [Example 6], the Ki came out at 21 nM.

With `CO[C@@H]1COCC[C@@H]1NC1CCN(C(=O)c2cncc(NC[C@H]3CCC[C@@H](c4ccc(OC(F)(F)F)cc4)O3)c2C)CC1` [Example 5], the Ki worked out at 1 nM.

For `CO[C@@H]1COCC[C@@H]1NC1CCN(C(=O)c2cncc(NC[C@H]3CCC[C@@H](c4ccc(C)cc4)O3)c2C)CC1` [Example 3], the Ki was 6 nM.

On to `CO[C@@H]1COCC[C@@H]1NC1CCN(C(=O)c2cncc(NC[C@H]3CCC[C@@H](c4ccc(C)cc4)O3)c2)CC1` [Example 10], for which the Ki was determined as 107 nM.

For the compound `Cc1c(NC[C@H]2CCC[C@@H](c3ccccc3)C2)cncc1C(=O)N1CCC(N2CCC(N(C)S(C)(=O)=O)CC2)CC1` [Example 2], the Ki turned out to be 42 nM.

`CO[C@@H]1COCC[C@@H]1NC1CCN(C(=O)c2cncc(NC[C@H]3CCC[C@@H](c4ccc(C(F)(F)F)cc4)O3)c2)CC1` [Example 9]: the Ki was 27 nM.

As to `O=C(c1cncc(NC[C@H]2CCC[C@@H](c3ccc(C(F)(F)F)cc3)O2)c1)N1CCC(NC2CCOCC2F)CC1` (some centres unmarked) [Example 8], the Ki was found to be 100 nM.

For `CO[C@H]1COCC[C@H]1NC1CCN(C(=O)c2cncc(NC[C@H]3CCC[C@@H](c4ccc(OC(F)(F)F)cc4)O3)c2C)CC1` [Example 4], the Ki is 2 nM.

In the case of `CO[C@H]1COCC[C@H]1NC1CCN(C(=O)c2cncc(NC[C@H]3CCC[C@@H](c4ccc(C(F)(F)F)cc4)O3)c2)CC1` [Example 7], the Ki was 40 nM.

In the case of `CO[C@H]1COCC[C@H]1NC1CCN(C(=O)c2cncc(Nc3ccc(Cl)c(Cl)c3)c2C)CC1` [Example 6b], the Ki came out at 85 nM.

Take `CO[C@@H]1COCC[C@@H]1NC1CCN(C(=O)c2cncc(NCc3ccc(C(F)(F)F)c(Cl)c3)c2C)CC1` [Example 6d]: the Ki was 72 nM.

Consider `CO[C@@H]1COCC[C@@H]1NC1CCN(C(=O)c2cncc(Nc3ccc(Cl)c(Cl)c3)c2C)CC1` [Example 6a], for which the Ki came to 18 nM.

In the case of `CO[C@@H]1COCC[C@@H]1NC1CCN(C(=O)c2cncc(NCc3ccc(Cl)c(F)c3)c2C)CC1` [Example 6c], the Ki came out at 133 nM.

As to `Cc1c(NCc2ccc(C(C)(C)C)cc2)cncc1C(=O)N1CCC(N2CCC(N(C)S(C)(=O)=O)CC2)CC1` [Example 1], the Ki came to 594 nM.
